Test results: patent publication US20260069529A1 (BLIS TECHNOLOGIES LIMITED, priority 2022, published 2026)

Tests used:
[1] = tested on: Micrococcus luteus Q24; test: Inhibition by potential prebiotics, spot on lawned CABK12 agar (prebiotic MIC); format: cell-based; settings: 24 hours 37° C. 5% CO2; for Suitable to be used in Q24 containing product?: aqueous substances 100% to 0.3%, oils 100% only
Protocol: CABK12 agar plates were split into segments of 6 and […] suspension of Micrococcus luteus […] raw ingredient. Each of the aqueous potential prebiotic substances to be screened were serially diluted in a range of concentrations from 100% to 0.3% using sterile distilled water. Oil based substances were tested at 100% only. 20 μL of each concentration, of each substance were pipetted into a spot onto one segment of the […]12 agar plate and was incubated for 24 hours at 37° C. 5% CO2 in air.

[2] = tested on: Micrococcus luteus Q24; test: Effect of prebiotics on the growth of Micrococcus luteus Q24 in M17 broth; format: cell-based; settings: at 24 hours
Protocol: A batch of M17 broth (Difco #218561) was made, excluding the lactose solution, by following the manufacturer's instructions. 50 ml of broth was dispensed into sterile 100 ml Schott bottles and 2.5 g (5% w/v) of each potential prebiotic substance was added and mixed well using a magnetic stirrer and stir plate. The mixtures were autoclaved at 110° C. for 10 minutes and allowed to cool.
The suspensions of the prebiotic candidates were prewarmed to 40° C. in order to allow for increased homogenisation of any oil-based components prior to dispensing into the wells. 2 ml of each suspension and an M17 only (control) were pipetted into a sterile 24 well tissue culture plate. […] 100 μl of the suspension was pipetted into each well. Once the suspension was added each well was mixed by aspirating and dispensing the solution 5 times with a 1 ml pipette.
Each sample was enumerated at time points 0, 3, 6, 15, 26 and 34 hours using the following method. […] The number of colonies in each spot were then counted using an electronic colony counter and average to give the final result.
The same method was used as described above except the time points tested were 0, 6, 18 and 24 hours. Olive squalene was selected as one of the preferred prebiotics with 3 others that were analysed in combination with olive squalene and compared to the results of the prebiotic candidates alone (FIG. 17).

[3] = tested on: IL-6; test: EpiDerm safety and efficacy experiment, cytokine quantification IL-6; format: cell-based, human
Protocol: (§1) The remaining 6 tissues, which were destined for histology or else to receive 5% SDS, were grouped together on the sixth cell culture plate. […] Vitamin C (50 μg/mL) was instead delivered in the culture medium. On day 4 conditioned media samples were collected and stored frozen at −80° C. for cytokine measurement. 33 of the tissues were then exposed for 30 μL of 0.5% or 5% SDS in PBS, or to PBS as negative control. […] The remaining 3 tissues (destined for histology) were simply fed fresh medium and given the appropriate main treatment. […] All tissues were gently rinsed with PBS and the 3 histology tissues were fixed in neutral buffered formalin. The viabilities of the other 33 tissues were assessed using the MTT viability assay.
(§2) For quantification of IL-1β, IFN-α2, IFN-γ, TNF-α, MCP-1 (CCL2), IL-6, IL-8 (CXCL8), IL-10, IL-12p70, IL-17A, IL-18, IL-23, and IL-33, bead-based multiplex LEGENDplex™ analysis (LEGENDplex™ Human Inflammation Panel 1 (13-plex); BioLegend, San Diego, CA, USA) was used according to the manufacturer's instructions. The relevance of each of the measured cytokines for which activity was observed is described in Table 6. Reactions were performed in duplicate. Analysis was performed with the Cytek™ Aurora flow cytometer (Cytek Biosciences Inc., Fremont, CA, USA). Data were analysed via Legendplex V8.0 software (BioLegend) and specified as pg/mL.

[4] = tested on: IL-8 (CXCL8); test: EpiDerm safety and efficacy experiment, cytokine quantification IL-8; format: cell-based, human; settings: daily treatment 4 days; Q24 1×10^8 CFU/ml, vitamin C 50 μg/mL
Protocol: as §1, §2

[5] = tested on: IL-18; test: EpiDerm safety and efficacy experiment, cytokine quantification IL-18; format: cell-based, human; settings: daily treatment 4 days; Q24 1×10^8 CFU/ml, vitamin C 50 μg/mL
Protocol: as §1, §2

Molecule | Suitable to be used in Q24 containing product? [1] | also measured
OC[C@@H](O)[C@H](O)[C@@H](O)CO [Xylitol] | Yes | Effect on live Micrococcus luteus Q24 cell count [2]: detrimental
CC(O)C(=O)O (centres unmarked) [Lactic acid (LA), Lactic acid] | No | Inhibitory concentration against Micrococcus luteus Q24 [1]: > 2.5%
CC(C)=CCC/C(C)=C/CC/C(C)=C/CC/C=C(\C)CC/C=C(\C)CCC=C(C)C [Olive Squalene] | Yes | –
NC(=O)c1cccnc1 [Niacinamide] | Yes | –
Cc1c(C)c2c(c(C)c1O)CC[C@@](C)(CCC[C@H](C)CCC[C@H](C)CCCC(C)C)O2 [Vitamin E, D Alpha Tocopherol 1000 IU, D Alpha Tocopherol] | Yes | –
O=C(O)c1ccccc1O [Salicylic acid (SA), Salicylic acid] | No | Inhibitory concentration against Micrococcus luteus Q24 [1]: > 5%
Hyaluronic acid | Yes | –
CC1=C(/C=C/C(C)=C/C=C/C(C)=C/CO)C(C)(C)CCC1 [Retinol (Vitamin A), Retinol] | Yes | –
O=C1O[C@H]([C@@H](O)CO)C(O)=C1O [vitamin C, Ascorbic acid] | Yes | IL-6 levels day 4 vs day 0 ([3]; daily treatment 4 days, Q24 1×10^8 CFU/ml, vitamin C 50 μg/mL): slight but significant increase on day 4; IL-6 released in response to 0.5% SDS ([3]; pre-treatment 4 days, day 5 vs day 4): slight increase on day 5; IL-8 levels day 4 vs day 0 [4]: unchanged; IL-18 levels day 4 vs day 0 [5]: trend for lower values on day 4
NC(=O)NC1NC(=O)NC1=O (centres unmarked) [Allantoin] | Yes | –
